According to patent publication US20150105252A1, “SUBSTITUTED PYRAZOLES AS HERBICIDES” (E I DU PONT DE NEMOURS AND COMPANY, priority 2013, published 2015):

Columns and labels:
pigweed = experiment: Test A postemergence; type: in vivo, Amaranthus retroflexus
Procedure, shortened: (§1)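 Visual injury ratings, 0 = no effect to 100 = complete control, taken about 10 days after treatment against untreated controls. Test chemicals, in a non-phytotoxic surfactant-containing solvent, were sprayed onto soil preemergence or onto one- to two-leaf plants (2–10 cm) postemergence, in loam–sand soil under greenhouse conditions.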

barnyardgrass = experiment: Test B flood; type: in vivo, Echinochloa crus-galli; settings: 250 g ai/ha, visual rating on 0 to 100 scale (0 no effect, 100 complete control), 13 to 15 days
Procedure, shortened: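 Greenhouse assay lasting 13 to 15 days. Treatment was into water flooding pots 3 cm deep, at the 2-leaf stage, with that level sustained afterwards. Scores compare treated with control plants visually, 100 denoting complete control and 0 no effect; a dash marks no test result.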

crabgrass, large [1] = experiment: Test C preemergence; type: in vivo, Digitaria sanguinalis; settings: for Crabgrass, Large plant response rating: scale 0 to 100 (0 no effect, 100 complete control)
Procedure, shortened: (§2)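 Visual control ratings on a 0–100 scale (100 = complete control) made against untreated controls after 13 to 15 days in greenhouse. Compounds applied in surfactant-containing solvent mixture, either preemergence to loam/sand-sown seeds or postemergence to 1- to 4-leaf plants (2–18 cm) in peat medium.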

foxtail, giant = experiment: Test C preemergence; type: in vivo, Setaria faberii; settings: for Foxtail, Giant plant response rating: scale 0 to 100 (0 no effect, 100 complete control)
Text: (§3) Seeds of plant species selected from blackgrass (Alopecurus myosuroides), ryegrass, Italian (Italian ryegrass, Lolium multiflorum), wheat (winter wheat, Triticum aestivum), galium (catchweed bedstraw, Galium aparine), corn (Zea mays), crabgrass, large (large crabgrass, Digitaria sanguinalis), foxtail, giant (giant foxtail, Setaria faberii), johnsongrass (Sorghum halepense), lambsquarters (Chenopodium album), morningglory (Ipomoea coccinea), nutsedge, yellow (yellow nutsedge, Cyperus esculentus), pigweed (redroot pigweed, Amaranthus retroflexus), ragweed (common ragweed, Ambrosia elation), soybean (Glycine max), barnyardgrass (Echinochloa crus-galli), oilseed rape (Brassica napus), waterhemp (common waterhemp, Amaranthus rudis), oat, wild (wild oat, Avena fatua), kochia (Kochia scoparia), Surinam grass (Brachiaria decumbens), foxtail, green (green foxtail, Setaria viridis), goosegrass (Eleusine indica), bromegrass, downy (downy bromegrass, Bromus tectorum), nightshade (eastern black nightshade, Solanum ptycanthum), cocklebur (common cocklebur, Xanthium strumarium), cupgrass, woolly (woolly cupgrass, Eriochloa villosa), bermudagrass (Cynodon dactylon), sunflower, (common oilseed sunflower, Helianthus annuus), Russian thistle (Salsola kali), and velvetleaf (Abutilon theophrasti) were planted into a blend of loam soil and sand and treated preemergence with test chemicals formulated in a non-phytotoxic solvent mixture which included a surfactant.
(§4) At the same time, plants selected from these crop and weed species and also chickweed (common chickweed, Stellaria media), canarygrass (littleseed canarygrass, Phalaris minor), and deadnettle (henbit deadnettle, Lamium amplexicaule), were planted in pots containing Redi-Earth® planting medium (Scotts Company, 14111 Scottslawn Road, Marysville, Ohio 43041) comprising spaghnum peat moss, vermiculite, wetting agent and starter nutrients and treated with postemergence applications of test chemicals formulated in the same manner. Plants ranged in height from 2 to 18 cm (1- to 4-leaf stage) for postemergence treatments. Treated plants and controls were maintained in a greenhouse for 13 to 15 days, after which time all species were compared to controls and visually evaluated. Plant response ratings, summarized in Table C, are based on a scale of 0 to 100 where 0 is no effect and 100 is complete control. A dash (-) response means no test result.

waterhemp = experiment: Test C preemergence; type: in vivo, Amaranthus rudis; settings: for Waterhemp plant response rating: scale 0 to 100 (0 no effect, 100 complete control)
Text: as §3, §4

blackgrass = experiment: Test C postemergence; type: in vivo, Alopecurus myosuroides; settings: for Plant response rating (scale of 0 to 100 where 0 is no effect and 100 is complete control), Blackgrass: Postemergence, 31 g ai/ha, visually evaluated after 13 to 15 days; for Blackgrass plant response rating / Plant response rating, Blackgrass: postemergence; for Blackgrass plant response rating: 62 g ai/ha, scale 0 to 100
Procedure, shortened: as §2

wheat = experiment: Test C postemergence; type: in vivo, Triticum aestivum; settings: for Plant response rating (scale of 0 to 100 where 0 is no effect and 100 is complete control), Wheat: Postemergence, 31 g ai/ha, visually evaluated after 13 to 15 days; for Wheat plant response rating / Plant response rating, Wheat: postemergence; for Wheat plant response rating: scale 0 to 100
Text: as §3, §4

corn = experiment: Test C postemergence; type: in vivo, Zea mays; settings: for Plant response rating (scale of 0 to 100 where 0 is no effect and 100 is complete control), Corn: Postemergence, 31 g ai/ha, visually evaluated after 13 to 15 days; for Corn plant response rating / Plant response rating, Corn: postemergence; for Corn plant response rating: 62 g ai/ha, scale 0 to 100
Procedure, shortened: as §2

crabgrass, large [2] = experiment: Test C postemergence; type: in vivo, Digitaria sanguinalis; settings: for Plant response rating (scale of 0 to 100 where 0 is no effect and 100 is complete control), Crabgrass, Large: Postemergence, 31 g ai/ha, visually evaluated after 13 to 15 days; for Crabgrass, Large plant response rating / Plant response rating, Crabgrass, Large: postemergence; for Crabgrass, Large plant response rating: 62 g ai/ha, scale 0 to 100
Procedure, shortened: as §2

johnsongrass = experiment: Test C postemergence; type: in vivo, Sorghum halepense; settings: for Plant response rating (scale of 0 to 100 where 0 is no effect and 100 is complete control), Johnsongrass: Postemergence, 31 g ai/ha, visually evaluated after 13 to 15 days; for Johnsongrass plant response rating / Plant response rating, Johnsongrass: postemergence; for Johnsongrass plant response rating: 62 g ai/ha, scale 0 to 100
Text: as §3, §4

oilseed rape = experiment: Test C postemergence; type: in vivo, Brassica napus; settings: for Plant response rating (scale of 0 to 100 where 0 is no effect and 100 is complete control), Oilseed Rape: Postemergence, 31 g ai/ha, visually evaluated after 13 to 15 days; for Oilseed Rape plant response rating / Plant response rating, Oilseed Rape: postemergence; for Oilseed Rape plant response rating: 62 g ai/ha, scale 0 to 100
Procedure, shortened: as §2

morningglory [3] = experiment: Test A preemergence; type: in vivo, Ipomoea spp.; settings: preemergence
Procedure, shortened: as §1

morningglory [4] = experiment: Test A postemergence; type: in vivo, Ipomoea spp.
Procedure, shortened: as §1

[5] = Postemergence, 500 g ai/ha, 0 to 100 scale (0 no effect, 100 complete control)
[6] = postemergence, 125 g ai/ha, about 10 days, visual rating on 0 to 100 scale (0 no effect, 100 complete control)
[7] = preemergence, 31 g ai/ha, visual rating, 13 to 15 days
[8] = preemergence, 62 g ai/ha, 13 to 15 days
[9] = preemergence, 125 g ai/ha, 13 to 15 days, scale 0 to 100, 0 = no effect, 100 = complete control
[10] = 250 g ai/ha, scale 0 to 100 (0 no effect, 100 complete control)
[11] = 125 g ai/ha, scale 0 to 100, 0 no effect, 100 complete control

| SMILES | Pigweed plant response rating (pigweed; [5]) | Pigweed plant response rating (pigweed; [6]) | Plant response rating, Barnyardgrass (barnyardgrass) | Plant response rating (scale of 0 to 100 where 0 is no effect and 100 is complete control), Blackgrass (blackgrass) | Blackgrass plant response rating (blackgrass) | Plant response rating, Blackgrass (blackgrass; [10]) | Plant response rating, Blackgrass (blackgrass; [11]) | Plant response rating (scale of 0 to 100 where 0 is no effect and 100 is complete control), Wheat (wheat) | Wheat plant response rating (wheat; 62 g ai/ha) | Plant response rating, Wheat (wheat; [10]) | Plant response rating (scale of 0 to 100 where 0 is no effect and 100 is complete control), Corn (corn) | Corn plant response rating (corn) | Plant response rating, Corn (corn; [10]) | Plant response rating, Corn (corn; [11]) | Plant response rating (scale of 0 to 100 where 0 is no effect and 100 is complete control), Crabgrass, Large (crabgrass, large [2]) | Crabgrass, Large plant response rating (crabgrass, large [2]) | Plant response rating, Crabgrass, Large (crabgrass, large [2]; [10]) | Plant response rating, Crabgrass, Large (crabgrass, large [2]; [11]) | Plant response rating (scale of 0 to 100 where 0 is no effect and 100 is complete control), Johnsongrass (johnsongrass) | Johnsongrass plant response rating (johnsongrass) | further results |
| --- | --- | --- | --- | --- | --- | --- | --- | --- | --- | --- | --- | --- | --- | --- | --- | --- | --- | --- | --- | --- | --- |
| CCOc1cc(C(=O)NC2CC2)nn1Cc1ccnc(OC(F)F)c1 [Compound 133] | 100 | 100 | 40 | 5 | 5 | 10 | 10 | 5 | 5 | 30 | 10 | 10 | 35 | 10 | 5 | 5 | 35 | 10 | 5 | 5 | Plant response rating (scale of 0 to 100), Crabgrass, Large (crabgrass, large [1]; Preemergence, 250 g ai/ha): 100; Crabgrass, Large plant response rating (crabgrass, large [1]; [7]): 100; Crabgrass, Large plant response rating (crabgrass, large [1]; [8]): 100; Plant response rating, Crabgrass, Large (crabgrass, large [1]; [9]): 100; Plant response rating (scale of 0 to 100), Foxtail, Giant (foxtail, giant; Preemergence, 250 g ai/ha): 100; Foxtail, Giant plant response rating (foxtail, giant; [7]): 85; Foxtail, Giant plant response rating (foxtail, giant; [8]): 100; Plant response rating, Foxtail, Giant (foxtail, giant; [9]): 100; Plant response rating (scale of 0 to 100), Waterhemp (waterhemp; Preemergence, 250 g ai/ha): 100; Waterhemp plant response rating (waterhemp; [7]): 85; Waterhemp plant response rating (waterhemp; [8]): 100; Plant response rating, Waterhemp (waterhemp; [9]): 100; Plant response rating, Wheat (wheat; [11]): 15; Plant response rating, Johnsongrass (johnsongrass; [10]): 5; Plant response rating, Johnsongrass (johnsongrass; [11]): 5; Plant response rating (scale of 0 to 100 where 0 is no effect and 100 is complete control), Oilseed Rape (oilseed rape): 50; Oilseed Rape plant response rating (oilseed rape): 60; Plant response rating, Oilseed Rape (oilseed rape; [10]): 85; Plant response rating, Oilseed Rape (oilseed rape; [11]): 75 |
| CCCc1cc(C(=O)NCC(F)(F)F)nn1Cc1cc(C(F)(F)F)nn1C [Compound 138] | 100 | 100 | 50 | 5 | 10 | 50 | 20 | 5 | 5 | 15 | 15 | 15 | 30 | 15 | 5 | 5 | 70 | 30 | 10 | 10 | Morningglory plant response rating (morningglory [3]; 125 g ai/ha, visual injury, 0 to 100 scale, approx. 10 days): 90; Morningglory plant response rating (morningglory [3]; 500 g ai/ha, visual injury after approx. 10 days, 0 to 100 scale (0 no effect, 100 complete control)): 100; Morningglory plant response rating (morningglory [4]; [5]): 100; Morningglory plant response rating (morningglory [4]; [6]): 80; Wheat plant response rating (wheat): 15; Plant response rating, Johnsongrass (johnsongrass; [10]): 20; Plant response rating, Johnsongrass (johnsongrass; [11]): 10; Plant response rating (scale of 0 to 100 where 0 is no effect and 100 is complete control), Oilseed Rape (oilseed rape): 55; Oilseed Rape plant response rating (oilseed rape): 60; Plant response rating, Oilseed Rape (oilseed rape; [10]): 60; Plant response rating, Oilseed Rape (oilseed rape; [11]): 80 |
